{"source": "paper PMC5427847", "about": "“Epilepsy-associated GRIN2A mutations reduce NMDA receptor trafficking and agonist potency – molecular profiling and functional rescue” (Scientific Reports, 2017)", "origin": "cited, not measured here", "key": {"[1]": {"tested_on": "GluN2A K484 to aspartic acid", "details": "K484 to aspartic acid versus wild type"}, "[2]": {"tested_on": "GluN1 D732 mutated to alanine, co-expressed with GluN2A", "details": "receptor remaining on the cell surface"}, "D732A-GluN1": {"tested_on": "D732A-GluN1", "details": "competitive glycine site antagonist"}}}
{"compound": "NCC(=O)O", "note": "[Glycine, glycine]", "values": [{"measurement": "Effect on glycine binding", "setting": "[1]", "result": "no measurable effect"}, {"measurement": "Reduction in glycine potency", "setting": "[2]", "result": 4000, "unit": "fold"}]}
{"compound": "O=C(O)c1cc(=O)c2c(Cl)cc(Cl)cc2[nH]1", "note": "[DCKA]", "values": [{"measurement": "Rescue of mutant receptors trapped within the ER", "setting": "D732A-GluN1", "result": "has been achieved"}]}
{"compound": "N[C@@H](CCC(=O)O)C(=O)O", "note": "[Glutamate, glutamate]", "values": [{"measurement": "Reduction of glutamate affinity", "setting": "[1]", "result": 6, "unit": "fold"}]}
